Laboratory results as given in PMC8909834, “An Orally Bioavailable and Highly Efficacious Inhibitor of CDK9/FLT3 for the Treatment of Acute Myeloid Leukemia” (Cancers, 2022).

Key:
Assay in all cases: Kinase Hotspot radiolabel assay
Type in all cases: biochemical
Details in all cases: read-out: % Residual Activity
PKN3/PRK3 = biological target: T1, PKN3/PRK3 (Homo sapiens, UniProt Q6P5Z2)
T1 construct: purchased Reaction Biology Corporation (Kinase HotSpot)
Summary of the method: (§1)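 Hotspot radioactive kinase assay, compound fixed at 1 µM, broad 369-kinase selectivity screen.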

HGK/MAP4K4 = biological target: T2, HGK/MAP4K4 (Homo sapiens, UniProt O95819)
T2 construct: purchased Reaction Biology Corporation (Kinase HotSpot)
Summary of the method: as §1

MEK2 = biological target: T3, MEK2 (Homo sapiens, UniProt P36507)
T3 construct: purchased Reaction Biology Corporation (Kinase HotSpot)
T3 sequence (P36507 whole entry): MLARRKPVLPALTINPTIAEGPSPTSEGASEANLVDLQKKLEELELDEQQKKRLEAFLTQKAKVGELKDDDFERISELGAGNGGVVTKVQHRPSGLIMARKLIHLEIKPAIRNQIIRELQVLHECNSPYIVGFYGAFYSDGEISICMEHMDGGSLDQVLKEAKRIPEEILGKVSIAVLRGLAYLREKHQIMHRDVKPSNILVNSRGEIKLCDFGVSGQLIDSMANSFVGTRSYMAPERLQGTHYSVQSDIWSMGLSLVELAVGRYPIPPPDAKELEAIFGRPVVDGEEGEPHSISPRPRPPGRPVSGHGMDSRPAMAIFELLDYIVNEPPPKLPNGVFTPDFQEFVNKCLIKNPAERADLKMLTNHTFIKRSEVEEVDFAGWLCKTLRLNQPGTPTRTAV
Summary of the method: as §1

CDK2/cyclin O = biological target: T4, CDK2/cyclin O (Homo sapiens, UniProt P24941)
T4 construct: purchased Reaction Biology Corporation (Kinase HotSpot)
Summary of the method: as §1

MRCKa/CDC42BPA = biological target: T5, MRCKa/CDC42BPA (Homo sapiens, UniProt Q5VT25)
T5 construct: purchased Reaction Biology Corporation (Kinase HotSpot)
Summary of the method: as §1

PKCmu/PRKD1 = biological target: T6, PKCmu/PRKD1 (Homo sapiens, UniProt Q15139)
T6 construct: purchased Reaction Biology Corporation (Kinase HotSpot)
Summary of the method: as §1

ALK4/ACVR1B = biological target: T7, ALK4/ACVR1B (Homo sapiens, UniProt P36896)
T7 construct: purchased Reaction Biology Corporation (Kinase HotSpot)
Summary of the method: as §1

DYRK4 = biological target: T8, DYRK4 (Homo sapiens, UniProt Q9NR20)
T8 construct: purchased Reaction Biology Corporation (Kinase HotSpot)
Summary of the method: as §1

KSR2 = biological target: T9, KSR2 (Homo sapiens, UniProt Q6VAB6)
T9 construct: purchased Reaction Biology Corporation (Kinase HotSpot)
Summary of the method: as §1

SSTK/TSSK6 = biological target: T10, SSTK/TSSK6 (Homo sapiens, UniProt Q9BXA6)
T10 construct: purchased Reaction Biology Corporation (Kinase HotSpot)
Summary of the method: as §1

PDGFRb = biological target: T11, PDGFRb (Homo sapiens, UniProt P09619)
T11 construct: purchased Reaction Biology Corporation (Kinase HotSpot)
T11 sequence (P09619 33-1106): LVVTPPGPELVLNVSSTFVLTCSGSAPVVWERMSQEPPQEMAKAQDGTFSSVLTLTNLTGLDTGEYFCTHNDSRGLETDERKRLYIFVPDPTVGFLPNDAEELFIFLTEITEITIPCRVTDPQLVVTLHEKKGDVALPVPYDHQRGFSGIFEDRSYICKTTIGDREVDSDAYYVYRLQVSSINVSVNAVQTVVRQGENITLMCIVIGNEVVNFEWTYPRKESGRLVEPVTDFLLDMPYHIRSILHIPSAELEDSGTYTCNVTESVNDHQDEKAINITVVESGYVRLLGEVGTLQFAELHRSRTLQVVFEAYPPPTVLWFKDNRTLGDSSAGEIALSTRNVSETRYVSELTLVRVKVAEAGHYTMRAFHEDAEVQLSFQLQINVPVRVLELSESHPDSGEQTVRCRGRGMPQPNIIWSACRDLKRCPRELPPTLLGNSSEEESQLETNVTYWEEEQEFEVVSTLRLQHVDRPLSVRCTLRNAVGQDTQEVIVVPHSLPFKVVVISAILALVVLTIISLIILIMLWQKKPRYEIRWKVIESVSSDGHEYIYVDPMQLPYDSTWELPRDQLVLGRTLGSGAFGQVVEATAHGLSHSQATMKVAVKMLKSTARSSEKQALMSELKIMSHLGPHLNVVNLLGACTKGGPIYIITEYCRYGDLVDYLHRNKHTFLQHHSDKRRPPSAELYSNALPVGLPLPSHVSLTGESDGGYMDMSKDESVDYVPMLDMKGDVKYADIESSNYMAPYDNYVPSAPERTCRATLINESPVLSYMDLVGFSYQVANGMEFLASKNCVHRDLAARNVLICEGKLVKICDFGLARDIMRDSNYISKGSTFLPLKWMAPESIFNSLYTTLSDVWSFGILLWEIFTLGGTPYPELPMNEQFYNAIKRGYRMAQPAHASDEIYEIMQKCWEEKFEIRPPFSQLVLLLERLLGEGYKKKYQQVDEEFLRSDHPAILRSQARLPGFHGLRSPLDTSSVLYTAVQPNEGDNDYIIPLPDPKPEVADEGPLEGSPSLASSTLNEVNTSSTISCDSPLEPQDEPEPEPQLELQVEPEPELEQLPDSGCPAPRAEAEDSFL
Summary of the method: as §1

SIK1 = biological target: T12, SIK1 (Homo sapiens, UniProt P57059)
T12 construct: purchased Reaction Biology Corporation (Kinase HotSpot)
Summary of the method: as §1

PLK1 = biological target: T13, PLK1 (Homo sapiens, UniProt P53350)
T13 construct: purchased Reaction Biology Corporation (Kinase HotSpot)
Summary of the method: as §1

MYLK3 = biological target: T14, MYLK3 (Homo sapiens, UniProt Q32MK0)
T14 construct: purchased Reaction Biology Corporation (Kinase HotSpot)
T14 sequence (Q32MK0 whole entry): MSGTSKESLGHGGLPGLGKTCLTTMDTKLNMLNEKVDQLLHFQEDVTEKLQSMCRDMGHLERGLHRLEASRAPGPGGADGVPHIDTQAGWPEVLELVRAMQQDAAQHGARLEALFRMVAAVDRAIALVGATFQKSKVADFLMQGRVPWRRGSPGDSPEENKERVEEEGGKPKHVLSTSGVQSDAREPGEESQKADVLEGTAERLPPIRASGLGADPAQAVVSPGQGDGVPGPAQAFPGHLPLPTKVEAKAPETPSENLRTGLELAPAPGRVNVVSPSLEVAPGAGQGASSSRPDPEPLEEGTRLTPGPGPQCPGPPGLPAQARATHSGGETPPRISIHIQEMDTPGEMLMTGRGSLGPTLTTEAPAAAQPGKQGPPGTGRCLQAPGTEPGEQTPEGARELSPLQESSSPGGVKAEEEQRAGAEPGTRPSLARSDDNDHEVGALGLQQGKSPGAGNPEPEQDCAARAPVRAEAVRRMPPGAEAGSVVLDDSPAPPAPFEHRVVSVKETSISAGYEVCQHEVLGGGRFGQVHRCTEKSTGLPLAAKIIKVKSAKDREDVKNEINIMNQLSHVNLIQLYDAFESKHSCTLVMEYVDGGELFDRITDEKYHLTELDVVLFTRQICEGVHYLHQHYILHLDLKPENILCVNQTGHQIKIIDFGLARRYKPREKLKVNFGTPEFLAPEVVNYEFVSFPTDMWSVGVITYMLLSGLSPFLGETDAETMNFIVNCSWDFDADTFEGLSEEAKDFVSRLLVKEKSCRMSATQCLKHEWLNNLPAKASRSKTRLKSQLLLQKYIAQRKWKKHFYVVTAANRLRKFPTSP
Summary of the method: as §1

CTK/MATK = biological target: T15, CTK/MATK (Homo sapiens, UniProt P42679)
T15 construct: purchased Reaction Biology Corporation (Kinase HotSpot)
T15 sequence (P42679 whole entry): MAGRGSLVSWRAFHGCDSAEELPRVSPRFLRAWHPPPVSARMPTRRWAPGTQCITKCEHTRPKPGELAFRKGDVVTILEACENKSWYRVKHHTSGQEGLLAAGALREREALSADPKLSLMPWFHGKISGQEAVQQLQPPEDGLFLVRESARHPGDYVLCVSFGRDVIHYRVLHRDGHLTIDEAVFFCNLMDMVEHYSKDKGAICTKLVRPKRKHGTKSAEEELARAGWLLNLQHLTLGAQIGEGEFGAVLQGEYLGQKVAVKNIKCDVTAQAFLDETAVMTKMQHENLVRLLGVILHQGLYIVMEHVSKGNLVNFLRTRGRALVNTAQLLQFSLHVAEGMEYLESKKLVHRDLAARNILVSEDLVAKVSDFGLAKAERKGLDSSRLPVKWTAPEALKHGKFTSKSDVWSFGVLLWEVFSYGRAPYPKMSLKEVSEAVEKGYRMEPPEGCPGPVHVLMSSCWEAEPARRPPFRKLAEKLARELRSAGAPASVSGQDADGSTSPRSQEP
Summary of the method: as §1

P38a/MAPK14 = biological target: T16, P38a/MAPK14 (Homo sapiens, UniProt Q16539)
T16 construct: purchased Reaction Biology Corporation (Kinase HotSpot)
Summary of the method: as §1

MEKK2 = biological target: T17, MEKK2 (Homo sapiens, UniProt Q9Y2U5)
T17 construct: purchased Reaction Biology Corporation (Kinase HotSpot)
Summary of the method: as §1

SBK1 = biological target: T18, SBK1 (Homo sapiens, UniProt Q52WX2)
T18 construct: purchased Reaction Biology Corporation (Kinase HotSpot)
T18 sequence (Q52WX2 whole entry): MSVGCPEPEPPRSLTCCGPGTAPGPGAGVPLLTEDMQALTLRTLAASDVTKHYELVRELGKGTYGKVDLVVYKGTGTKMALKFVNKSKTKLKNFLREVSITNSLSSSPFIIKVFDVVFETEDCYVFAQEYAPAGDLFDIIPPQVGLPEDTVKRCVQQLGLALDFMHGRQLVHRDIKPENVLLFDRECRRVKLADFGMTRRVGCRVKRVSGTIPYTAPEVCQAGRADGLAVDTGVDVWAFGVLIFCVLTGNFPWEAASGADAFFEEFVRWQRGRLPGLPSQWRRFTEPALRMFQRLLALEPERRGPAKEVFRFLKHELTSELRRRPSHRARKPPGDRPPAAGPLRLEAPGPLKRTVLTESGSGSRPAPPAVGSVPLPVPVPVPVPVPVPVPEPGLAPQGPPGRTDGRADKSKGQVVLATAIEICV
Summary of the method: as §1

KHS/MAP4K5 = biological target: T19, KHS/MAP4K5 (Homo sapiens, UniProt Q9Y4K4)
T19 construct: purchased Reaction Biology Corporation (Kinase HotSpot)
Summary of the method: as §1

SYK = biological target: T20, SYK (Homo sapiens, UniProt P43405)
T20 construct: purchased Reaction Biology Corporation (Kinase HotSpot)
Summary of the method: as §1

MARK2/PAR-1Ba = biological target: T21, MARK2/PAR-1Ba (Homo sapiens, UniProt Q7KZI7)
T21 construct: purchased Reaction Biology Corporation (Kinase HotSpot)
Summary of the method: as §1

CK2a2 = biological target: T22, CK2a2 (Homo sapiens, UniProt P19784)
T22 construct: purchased Reaction Biology Corporation (Kinase HotSpot)
Summary of the method: as §1

CDK9/cyclin T1 = biological target: T23, CDK9/cyclin T1 (Homo sapiens, UniProt P50750)
T23 construct: purchased Reaction Biology Corporation (Kinase HotSpot)
T23 sequence (P50750 whole entry): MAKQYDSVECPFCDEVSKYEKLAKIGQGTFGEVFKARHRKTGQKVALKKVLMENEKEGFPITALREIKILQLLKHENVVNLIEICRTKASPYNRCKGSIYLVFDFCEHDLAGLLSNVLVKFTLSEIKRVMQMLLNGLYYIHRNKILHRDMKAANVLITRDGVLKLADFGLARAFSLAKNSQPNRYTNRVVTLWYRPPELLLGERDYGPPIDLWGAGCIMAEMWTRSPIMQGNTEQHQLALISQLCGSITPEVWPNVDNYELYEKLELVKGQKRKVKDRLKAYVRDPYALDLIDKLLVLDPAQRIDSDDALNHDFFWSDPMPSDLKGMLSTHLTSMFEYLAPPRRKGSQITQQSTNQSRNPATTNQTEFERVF
T23 sequence (O60563 whole entry partner): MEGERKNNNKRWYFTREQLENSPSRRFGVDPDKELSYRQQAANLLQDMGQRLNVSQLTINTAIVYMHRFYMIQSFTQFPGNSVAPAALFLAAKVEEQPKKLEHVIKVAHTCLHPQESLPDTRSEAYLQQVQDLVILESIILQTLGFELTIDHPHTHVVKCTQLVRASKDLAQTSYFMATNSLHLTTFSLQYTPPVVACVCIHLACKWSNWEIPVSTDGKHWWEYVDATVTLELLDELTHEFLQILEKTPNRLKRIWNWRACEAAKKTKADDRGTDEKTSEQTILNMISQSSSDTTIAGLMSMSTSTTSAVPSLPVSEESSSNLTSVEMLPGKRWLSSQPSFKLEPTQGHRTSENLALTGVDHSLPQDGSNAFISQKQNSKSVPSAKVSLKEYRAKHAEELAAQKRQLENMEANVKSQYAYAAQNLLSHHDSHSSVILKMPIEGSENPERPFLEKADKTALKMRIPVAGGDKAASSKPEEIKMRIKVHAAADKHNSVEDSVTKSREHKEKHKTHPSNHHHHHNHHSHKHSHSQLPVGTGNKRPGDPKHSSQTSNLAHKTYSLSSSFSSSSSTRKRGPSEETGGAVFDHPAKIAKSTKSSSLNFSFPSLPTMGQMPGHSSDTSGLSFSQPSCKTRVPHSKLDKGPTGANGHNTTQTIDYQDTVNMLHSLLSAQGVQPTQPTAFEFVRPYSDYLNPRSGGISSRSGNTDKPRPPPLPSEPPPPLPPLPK
Summary of the method: as §1

CLK1 = biological target: T24, CLK1 (Homo sapiens, UniProt P49759)
T24 construct: purchased Reaction Biology Corporation (Kinase HotSpot)
Summary of the method: as §1

PKA = biological target: T25, PKA (Homo sapiens, UniProt P17612)
T25 construct: purchased Reaction Biology Corporation (Kinase HotSpot)
Summary of the method: as §1

CDK16/cyclin Y (PCTAIRE) = biological target: T26, CDK16/cyclin Y (PCTAIRE) (Homo sapiens, UniProt Q00536)
T26 construct: purchased Reaction Biology Corporation (Kinase HotSpot)
Summary of the method: as §1

FRK/PTK5 = biological target: T27, FRK/PTK5 (Homo sapiens, UniProt P42685)
T27 construct: purchased Reaction Biology Corporation (Kinase HotSpot)
T27 sequence (P42685 whole entry): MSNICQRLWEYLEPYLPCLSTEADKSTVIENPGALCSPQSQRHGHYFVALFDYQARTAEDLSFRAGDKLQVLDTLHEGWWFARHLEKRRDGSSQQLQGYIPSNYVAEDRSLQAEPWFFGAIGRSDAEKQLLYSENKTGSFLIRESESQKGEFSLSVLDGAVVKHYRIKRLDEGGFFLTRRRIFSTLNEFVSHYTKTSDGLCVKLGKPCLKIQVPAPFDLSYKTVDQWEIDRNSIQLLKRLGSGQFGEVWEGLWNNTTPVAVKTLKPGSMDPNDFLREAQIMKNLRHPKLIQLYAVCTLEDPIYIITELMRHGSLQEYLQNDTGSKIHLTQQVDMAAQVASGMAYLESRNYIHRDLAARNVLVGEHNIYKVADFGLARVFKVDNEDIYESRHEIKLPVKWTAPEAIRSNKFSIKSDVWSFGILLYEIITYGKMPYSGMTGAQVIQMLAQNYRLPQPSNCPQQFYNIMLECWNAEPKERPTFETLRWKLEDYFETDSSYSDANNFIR
Summary of the method: as §1

NEK6 = biological target: T28, NEK6 (Homo sapiens, UniProt Q9HC98)
T28 construct: purchased Reaction Biology Corporation (Kinase HotSpot)
Summary of the method: as §1

ACK1 = biological target: T29, ACK1 (Homo sapiens, UniProt Q07912)
T29 construct: purchased Reaction Biology Corporation (Kinase HotSpot)
Summary of the method: as §1

Work on `Cc1cnc(N[C@H]2CC[C@H](N)CC2)nc1-c1cnc2ccc(-c3ccccc3)cn12` [CDDD11-8] yielded a remaining activity at 1 µM (PKN3/PRK3) of 81%, a remaining activity at 1 µM (HGK/MAP4K4) of 32.8% and a remaining activity at 1 µM (MEK2) of 79.1%. For the same molecule, the remaining activity at 1 µM (CDK2/cyclin O) was 56.8%, the remaining activity at 1 µM (MRCKa/CDC42BPA) was 97.7% and the remaining activity at 1 µM (PKCmu/PRKD1) was 53.1%. The remaining activity at 1 µM (ALK4/ACVR1B) was 95.3%, the remaining activity at 1 µM (DYRK4) was 93.6% and the remaining activity at 1 µM (KSR2) was 101%. For the same molecule, the remaining activity at 1 µM (SSTK/TSSK6) was 79.1%, the remaining activity at 1 µM (PDGFRb) was 40.2% and the remaining activity at 1 µM (SIK1) was 39.7%. It also gave a remaining activity at 1 µM (PLK1) of 97.3%, a remaining activity at 1 µM (MYLK3) of 99.7% and a remaining activity at 1 µM (CTK/MATK) of 123%. It also gave a remaining activity at 1 µM (P38a/MAPK14) of 106%, a remaining activity at 1 µM (MEKK2) of 105% and a remaining activity at 1 µM (SBK1) of 102%. For the same molecule, the remaining activity at 1 µM (KHS/MAP4K5) was 20.3%, the remaining activity at 1 µM (SYK) was 13.4% and the remaining activity at 1 µM (MARK2/PAR-1Ba) was 23.1%. It also gave a remaining activity at 1 µM (CK2a2) of 74.7%, a remaining activity at 1 µM (CDK9/cyclin T1) of 18.5% and a remaining activity at 1 µM (CLK1) of 28.9%. It also gave a remaining activity at 1 µM (PKA) of 95.3%, a remaining activity at 1 µM (CDK16/cyclin Y (PCTAIRE)) of 57.4% and a remaining activity at 1 µM (FRK/PTK5) of 97.1%. The remaining activity at 1 µM (NEK6) was 96.2% and the remaining activity at 1 µM (ACK1) was 64.5%.
